Reference: patent publication US20220370636A1, “NICOTINAMIDE ADENINE DINUCLEOTIDE ACTIVATOR AND USE THEREOF” (University of South Florida, priority 2021, published 2022)

How the values were obtained:
[1] = In vitro drug release by membrane dialysis; settings: PBS pH 7.4, 37° C.
Experimental: In vitro Drug Release. Membrane dialysis method was used to investigate the drug release profile of P7C3 from the NPs. A 0.5 mL sample volume of aptamer conjugated, and non-conjugated P7C3 NPs was filled in dialysis cassettes (MWCO 14 KDa) and placed in 50 mL of PBS (pH 7.4) release medium with stirring at 100 rpm and temperature of 37° C. At predetermined time intervals, 1 mL sample volume of release media was removed, and the release study was continued for 7 days.

db/db mice [2] = assay: Serum pyruvate in db/db mice; assay type: in vivo; settings: vs db-Veh
Experimental: Serum pyruvate enzymatic activity. Serum pyruvate levels were measured using the pyruvate assay kit (Sigma-Aldrich, MO, USA) as per manufacturer's protocol. Briefly, 5 μL of the serum samples were added to each well along with the pyruvate assay buffer, probe solution and the enzyme mix, and incubated for 30 min at RT.

RAW264.7 cells = assay: qRT-PCR of inflammatory genes in LPS-treated RAW264.7 cells; assay type: cell-based; settings: LPS 1 μg/ml + P7C3 1 μM, 24 hours
Experimental: FIGS. 2A and 2B show macrophage: LPS induced inflammation and recovery via P7 markers such as NF-κb, IL-1β, IL-6. […] RAW264.7 cells was treated with LPS (1 μg/ml) and P7C3 (1 μM) for 24 hours. The isolated mRNA was subjected qRT-PCR using iScript cDNA Synthesis Kit (Bio-Rad, Cat #: 1706691) and iTaq Universal SYBR Green Supermix (Bio-Rad, Cat #: 1725121) in iCycler iQ Real Time PCR Detection System (Bio-Rad). The value of 2^-ΔΔCt was calculated and expressed as a Mean±SEM (n=6). The statistical analysis was performed using two-way ANOVA with Tukey's multiple comparisons test in GraphPad Prism 8.4.3, and p≤0.05 was considered statistically significant. […]

db/db mice [3] = assay: Fasting blood glucose, ITT, GTT and insulin in db/db mice
Experimental: Mice were fasted 6 h, and tail vein blood was used for glucose measurement with ACCU-CHECK blood glucose meter (Roche Diagnostics, Mannheim, Germany) on a weekly basis for 4 weeks.
Insulin tolerance test. […] After 4 weeks of treatment, both the db-Veh and db-P7C3 treated mice were fasted overnight for GTT assay. GTT was performed by a single dose of intraperitoneal injection of 2 g/kg body weight of D-(+)-glucose (Sigma-Aldrich, MO, USA). Blood samples were obtained by the retro orbital plexus technique. Serum glucose levels were determined prior to glucose administration (0 min) and after 30, 60, 90, and 120 min of glucose injection, using glucose oxidase peroxidase kit (Pointe Scientific Inc., MI. USA) and following manufacturer's instructions. […] The index of the total glucose shift was calculated as the area under the curve (AUC) using trapezium method.

db/db mice [4] = assay: Luminex Magpix IP-10 immunoassay of serum; assay type: in vivo; settings: vs db-Veh
Experimental: Luminex Magpix IP-10 (C—X—C motif chemokine ligand 10) immunoassay. The serum inflammatory markers were analysed using a mouse cytokine/chemokine antibody-immobilized premixed 32-plex Luminex magnetic beads based 96-Well plate immunoassay kit (Milliplex Map kit—MCYTMAG-70K-PX32, EMD Millipore Corporation, MA, USA) according to the manufacturer's instruction. Briefly, the serum samples were diluted at 1:2 in the assay buffer and measured in duplicates along with the standards and quality controls. The serum samples were incubated overnight at 4° C. with the magnetic beads. The wells were then washed with wash buffer and incubated with the detection antibodies for 1 h at RT, followed by a streptavidin-phycoerythrin incubation for 30 min at RT. After washing, the plate was run on MAGPIX with xPONENT software. The mean fluorescent intensity data was analysed using a five-parameter logistic curve-fitting Multi Analyst software for calculating the cytokine/chemokine concentrations of the samples (n=6 mice per group).

[5] = tested on: C57BL6 mice tibialis anterior muscle; assay: BaCl2 induced tibialis anterior muscle injury in mice; assay type: in vivo
Experimental: Saline or 50 μl of 1% BaCl2 was injected in belly region of the muscle to induce inflammation. Muscle damage was assessed by H&E staining at day 7. The percentage of fibers recovered in higher in P7C3 treated group compared with saline treated group (FIG. 1B). The centrally placed nuclei were higher in P7C3 treated group with 3 or higher number of nuclei (FIG. 1C).
P7C3 administration (1 wk, 5 mg/kg bodyweight/day, i.p.) rescued tibialis anterior muscle injury induced by BaCl2 in mice. Administration of P7C3 increased frequency of myofiber number and fusion index as noted by increased centrally-nucleated fibers (FIGS. 1A-1C). Overall, these show the use P7C3, and the efficacy of P7C3 as a drug for muscle repair.

[6] = mice, 1 wk, 5 mg/kg bodyweight/day, i.p.

OC(CNc1ccccc1)Cn1c2ccc(Br)cc2c2cc(Br)ccc21 (stereo not shown) [P7C3, 3,6-Dibromo-a-[(phenylamino)methyl]-9H-carbazole-9-ethanol]
cumulative drug release at day 1 (24 h) [1]: 100%
serum pyruvate levels (db/db mice [2]): significantly high
IL-1β expression (RAW264.7 cells): significantly decreased
IL-6 expression (RAW264.7 cells): decreased
IL-10 expression (RAW264.7 cells): decreased
NF-κb expression (RAW264.7 cells): significantly decreased
TNFα expression (RAW264.7 cells): significantly decreased
fasting blood glucose levels (db/db mice [3]; 10 mg/kg/day i.p., 4 weeks, 6 h fasting, vs vehicle): significant decrease
circulating blood glucose levels in response to the ITT (db/db mice [3]; 10 mg/kg/day i.p., 4 weeks, vs db-Veh): significantly reduced
HOMA-IR (db/db mice [3]; 4 weeks, vs db-Veh): decreased
circulating insulin levels (db/db mice [3]; 4 weeks, vs db-Veh): increased
β cells function (HOMA-B) (db/db mice [3]; 4 weeks, vs db-Veh): increased
GTT percent AUC (db/db mice [3]; trapezium method, vs db-Veh): significant decrease
serum IP-10 levels (db/db mice [4]): significant decrease
percentage of fibers recovered ([5]; H&E staining at day 7, vs saline treated group): higher
centrally placed nuclei (3 or higher number of nuclei) ([5]; day 7, vs saline treated group): higher
frequency of myofiber number [5, 6]: increased
fusion index (centrally-nucleated fibers) [5, 6]: increased
tibialis anterior muscle injury induced by BaCl2 [5, 6]: rescued
